The results in this text go back to patent publication US20210386668A1, “Cyclodextrin for use in the treatment and prevention of late phase bronchoconstriction in allergen-induced asthma” (Universite de Liege, priority 2020, published 2021).

The test system of data set [1] is BALB/c mice, house dust mite (HDM)-induced inflammation and AHR. It counts as in vivo. As to the method: The impact of HPBCD on asthma-associated inflammation and bronchial hyperresponsiveness was investigated in a mouse model of airway inflammation and hyperresponsiveness.
Six to seven mice per group were tested. Two-tailed Mann-Whitney test were performed with p-values of *P<0.05, **P<0.01 in two independent experiments.
Two intranasal instillations of house dust mite were performed on days 0 and 7 to induce the migration of specific memory CD4+ T-cells into lung parenchyma, followed by a challenge instillation on day 14. […] The last house dust mite instillation was preceded by two days of HPBCD or PBS inhalations and followed by three inhalations until sacrifice (FIG. 1A). […] Airway responsiveness was evaluated by exposing animals to increasing doses of inhaled methacholine and by measuring Newtonian resistances representing the resistance of central or conducting airways. […] The bronchoalveolar lavage fluid (BALF) was then recovered and analyzed for cell content. […] The effect of HPBCD inhalation on T-cell numbers in lung parenchyma was investigated by flow cytometry.
Males BALB/c mice of 6 to 8 weeks old were purchased from Janvier Labs (Saint-Berthevin, France). All mice were bred and housed in University facilities. All experiences and protocols were previously approved by local ethic (animal care and use) committee from the University of Liege.
Mice were lightly isoflurane-anesthetized and received an intra-nasal (i.n) instillation of HDM extract (100 μg; 50 μl) in endotoxin-free saline on days 0, 7 and 14. Mice were subjected to inhalation (generated by ultrasonic nebulizer (Devilbiss 2000)) of HPBCD 10 mM or endotoxin-free saline for 40 minutes between day 12 and 16. On day 14, they received the inhalation 1 h before the last i.n. instillation of HDM. After measurement of bronchial responsiveness using the FlexiVent System, mice were sacrificed on day 17. Mice submitted to ovalbumin as allergen were i.p injected with 10 mcg ovalbumin grade 5 and exposed to ovalbumin grade 3 by inhalation between day 21 and 25. Mice were treated with HPBCD 10 mM given by inhalation between day 19 and 25. After measurement of bronchial responsiveness using the FlexiVent System, mice were sacrificed on day 26.
Mice were anesthetized by intraperitoneal injection with a mixture of ketamine (10 mg/ml, Merial, Brussel, Belgium) and xylazine (1 mg/ml, VMD, Arendonk, Belgium). A tracheotomy was performed by insertion of a 20 gauge polyethylene catheter into the trachea. Mice were ventilated with a flexiVent small animal Ventilator® (SCIREQ, Montreal, Canada) as previously described (18). Respiratory parameters following methacholine challenge (3, 6, and 12 gr/l (or 24 gr/l)) were evaluated using a 3 sec broadband signal to measure input impedance from 1 to 20.5 Hz and to calculate constant-phase model parameters (Quick-prime 3). Newtonian resistance (Rn) was the main parameter measured during the challenge.
Mice were sacrificed and a bronchoalveolar lavage was performed using PBS-EDTA 0.05 mM (Calbiochem, Darmstadt, Germany). Cells were recovered by gentle manual aspiration. After centrifugation of bronchoalveolar fluid (BALF) (1200 rpm; 10 min; 4° C.), the cell pellet was resuspended in 0.5 ml PBS-EDTA 0.05 mM. The differential cell counts were performed on cytocentrifuged preparations (Cytospin) after Diff-Quick (Dade, Belgium) staining.
Left lung was excised and snap frozen in liquid nitrogen. Right lung was infused with 4% paraformaldehyde, embedded in paraffin and used for histology. Sections of 5 μm thickness were cut off from paraffin and were stained with haematoxylin-eosin to estimate the extent of inflammation (18) and with Alcian blue (mucin stain).
To obtain single-lung-cell suspensions, lungs were perfused with 10 ml HBSS through the right ventricle, razor-cut into small pieces and digested for 1 hour at 37° C. in 1 mg/ml collagenase A (Roche) and 0.05 mg/ml DNasel (Roche) in HBSS. […]

For data set [2], the system named is naïve CD4+ T cells (Balb/c). In words: In-vitro T-cell proliferation assay (BrdU incorporation, IL-2 secretion). It counts as cell-based, mice. As to conditions: HPBCD 5 mM, 48 h incubation. As to the method:
The term “T-cell proliferation” means an increase in T-cells over a given period of time. In one embodiment, T-cell proliferation is measured by flow cytometry analysis of lung TH2 cells and total leukocyte counts. An exemplary embodiment of a way to measure T-cell proliferation is given in example 1 below. In one embodiment, naïve CD4+ T cells are exposed to HPBCD at a concentration of 5 mM and an anti-CD3 (3 mcg/ml) for 24 hours or 48 hours with HPBCD (5 mM) or with culture medium alone at 37° C. 5% CO2. During the last 2 hours of the proliferation test, Bromodeoxyuridine is added to the medium and incorporation is quantified by ELISA. IL-2 secretion is measured in the medium after 24 hours and 48 hours of anti-CD3 stimulation through ELISA. HPBCD was used at a concentration of 5 mM. […] Naïve CD4+ T cells were isolated from Balb/c mice spleen and purified with a MACS® negative selection kit. 1.5×10^5 cells were seeded in a 96 well plate and incubated with HPBCD 5 mM (in RPMI 10% FBS 1% pen/strep) or with medium alone for 3 h. Cells were then recovered and plated in an anti-CD3 (3 mcg/ml) coated well for 24 or 48 h with HPBCD (5 mM) or with culture medium alone at 37° C. 5% CO2. During the last 2 h of the proliferation test, BrdU was added to medium and incorporation was quantified by ELISA following manufacturer instructions. […]
On the technique in general: Dividing cells build labelled thymidine or BrdU into new DNA.

SMILES strings stand for the structures.

In the case of `CC(O)COC[C@H]1O[C@@H]2O[C@H]3[C@H](O)[C@@H](O)[C@@H](O[C@H]4[C@H](O)[C@@H](O)[C@@H](O[C@H]5[C@H](O)[C@@H](O)[C@@H](O[C@H]6[C@H](O)[C@@H](O)[C@@H](O[C@H]7[C@H](O)[C@@H](O)[C@@H](O[C@H]8[C@H](O)[C@@H](O)[C@@H](O[C@H]1[C@H](O)[C@H]2O)O[C@@H]8COCC(C)O)O[C@@H]7COCC(C)O)O[C@@H]6COCC(C)O)O[C@@H]5COCC(C)O)O[C@@H]4COCC(C)O)O[C@@H]3COCC(C)O` (stereo partly drawn) [HPBCD, 2-hydroxypropyl-beta-cyclodextrin], the “airway responsiveness to methacholine (Newtonian resistance)” value in data set [1] (HPBCD 10 mM inhalation vs PBS, HDM-challenged mice, FIG. 1B) is given as “significantly decreased”. The “extent of inflammation around the bronchi” value in data set [1] (HPBCD vs placebo, FIG. 1D) is reported as “reduced”. Also, in data set [1] (HPBCD vs placebo, FIG. 1E), the “number of Alcian blue positive mucus producing epithelial cells” value is on record as “reduced”. In data set [1] (HPBCD-exposed vs placebo, FIG. 1C), the “eosinophilic inflammation in BALF” value is “significantly decreased”. In addition, in data set [1] (mouse, in vivo), the “number of TH2 cells (CD3+CD4+T1ST2+ ICOS+) in lung parenchyma” value was “nor the number of TH2 cells (CD3+CD4+T1ST2+ ICOS+) were modified” and the “number of total CD4+ T-cells (CD3+CD4+) in lung parenchyma” value is “Neither the number of total CD4+ T-cells (CD3+CD4+) nor the number of TH2 cells (CD3+CD4+T1ST2+ ICOS+) were modified”. For the same compound, the “cytotoxicity (BrdU incorporation)” value in data set [2] is recorded as “not associated with cytotoxicity”.
